Biological target: T1, rat NaP2b (SLC34A2) (Rattus norvegicus, UniProt Q9JJ09)
T1 construct: host or cells: HEK293
T1 sequence (Q9JJ09 1-695): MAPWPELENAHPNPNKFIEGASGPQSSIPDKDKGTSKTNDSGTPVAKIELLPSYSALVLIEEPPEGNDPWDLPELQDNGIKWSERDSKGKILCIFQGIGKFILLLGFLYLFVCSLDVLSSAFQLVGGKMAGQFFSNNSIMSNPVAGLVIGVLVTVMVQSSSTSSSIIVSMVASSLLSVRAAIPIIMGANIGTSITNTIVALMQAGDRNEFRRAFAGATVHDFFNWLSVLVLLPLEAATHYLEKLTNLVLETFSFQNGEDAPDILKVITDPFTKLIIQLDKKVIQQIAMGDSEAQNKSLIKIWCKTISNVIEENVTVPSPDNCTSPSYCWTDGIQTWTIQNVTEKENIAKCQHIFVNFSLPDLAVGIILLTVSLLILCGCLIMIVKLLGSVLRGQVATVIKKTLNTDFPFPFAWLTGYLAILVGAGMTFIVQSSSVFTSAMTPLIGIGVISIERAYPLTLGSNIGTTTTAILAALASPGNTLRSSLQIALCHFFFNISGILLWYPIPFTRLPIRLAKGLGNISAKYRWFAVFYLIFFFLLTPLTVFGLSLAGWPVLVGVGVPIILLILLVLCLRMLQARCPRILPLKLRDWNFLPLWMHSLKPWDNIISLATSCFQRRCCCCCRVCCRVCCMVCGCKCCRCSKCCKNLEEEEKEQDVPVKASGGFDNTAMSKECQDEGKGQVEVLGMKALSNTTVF
Assay: Inhibition of NaP2b-mediated Pi (33P) uptake in transfected HEK293 cells, rat NaP2b
Assay type: cell-based
Conditions: 33P Pi uptake, 0.1 mM phosphate, value given as pIC50 range
In short: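 HEK293 cells were transiently transfected with NaP2b cDNA using Lipofectamine and grown near confluence. Compounds were tested at twelve concentrations from 0.1 nM to 30 uM in duplicate, and 33P-phosphate uptake was counted by scintillation after lysis. Results are expressed as pIC50.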

Row | IC50 [µM] | SMILES
1 | 1 to 7.94 | Cc1nc(SCc2cccc(C(=O)Nc3ccc(N4CCCCC4)cc3-c3cc(C(=O)NCc4cccc(C(F)(F)F)c4)ccn3)c2)sc1CC(=O)O [Example 8.16]
2 | < 1 | O=C(O)Cc1ccc(SCc2cccc(C(=O)Nc3ccc(N4CCCCC4)cc3-c3cc(C(=O)NCc4cccc(C(F)(F)F)c4)ccn3)c2)cc1 [Example 8.17]
3 | 1 to 7.94 | O=C(O)CCCc1cccc(SCc2cccc(C(=O)Nc3ccc(N4CCCCC4)cc3-c3cc(C(=O)NCc4cccc(C(F)(F)F)c4)ccn3)c2)c1 [Example 8.19]
4 | 1 to 7.94 | O=C(O)c1ccc(SCc2cccc(C(=O)Nc3ccc(N4CCCCC4)cc3-c3cc(C(=O)NCc4cccc(C(F)(F)F)c4)ccn3)c2)cc1 [Example 8.23]
5 | 1 to 7.94 | O=C(O)c1cccc(CSCc2cccc(C(=O)Nc3ccc(N4CCCCC4)cc3-c3cc(C(=O)NCc4cccc(C(F)(F)F)c4)ccn3)c2)c1 [Example 9.3, 3-(((3-((4-(Piperidin-1-yl)-2-(4-((3-(trifluoromethyl)benzyl)carbamoyl)pyridin-2-yl)phenyl)carbamoyl)benzyl)thio)methyl)benzoic acid]
6 | 10 to 31.6 | COCCNC(=O)c1cccc(SCc2cccc(C(=O)Nc3ccc(N4CCCCC4)cc3-c3cc(C(=O)NCc4cccc(C(F)(F)F)c4)ccn3)c2)c1 [Example 10.5]
7 | 1 to 7.94 | O=C(NCCN1CCOCC1)c1cccc(SCc2cccc(C(=O)Nc3ccc(N4CCCCC4)cc3-c3cc(C(=O)NCc4cccc(C(F)(F)F)c4)ccn3)c2)c1 [Example 10.6]
8 | 1 to 7.94 | Cc1cc(C(=O)Nc2ccc(N3CCCCC3)cc2-c2cc(C(=O)NCc3cccc(C(F)(F)F)c3)ccn2)cc(C(=O)N(C)CCN2CCOCC2)c1 [Example 11.2, N1,5-Dimethyl-N1-(2-morpholinoethyl)-N3-(4-(piperidin-1-yl)-2-(4-((3-(trifluoromethyl)benzyl)carbamoyl)pyridin-2-yl)phenyl)isophthalamide]
9 | 10 to 31.6 | COc1c(C(=O)Nc2ccc(N3CCCCC3)cc2-c2cc(C(=O)NCc3cccc(C(F)(F)F)c3)ccn2)cccc1C(=O)N(C)CCN1CCOCC1 [Example 11.3, 2-Methoxy-N1-methyl-N1-(2-morpholinoethyl)-N3-(4-(piperidin-1-yl)-2-(4-((3-(trifluoromethyl)benzyl)carbamoyl)pyridin-2-yl)phenyl)isophthalamide]
10 | 10 to 31.6 | COc1cc(C(=O)Nc2ccc(N3CCCCC3)cc2-c2cc(C(=O)NCc3cccc(C(F)(F)F)c3)ccn2)cc(C(=O)N(C)CCN2CCOCC2)c1 [Example 11.4, 5-Methoxy-N1-methyl-N1-(2-morpholinoethyl)-N3-(4-(piperidin-1-yl)-2-(4-((3-(trifluoromethyl)benzyl)carbamoyl)pyridin-2-yl)phenyl)isophthalamide]
11 | 10 to 31.6 | CN(CCOCCOCCOCCC(=O)O)Cc1cccc(C(=O)Nc2ccc(N3CCCCC3)cc2-c2cc(C(=O)NCc3cccc(C(F)(F)F)c3)ccn2)c1 [Example 43, 2-Methyl-1-(3-((4-(piperidin-1-yl)-2-(4-((3-(trifluoromethyl)benzyl)carbamoyl)pyridin-2-yl)phenyl)carbamoyl)phenyl)-5,8,11-trioxa-2-azatetradecan-14-oic acid]

Continued, molecule first:

Row | SMILES | IC50 [µM]
12 | CC(C)C(=O)NC(CSCc1cccc(C(=O)Nc2ccc(N3CCCCC3)cc2-c2cc(C(=O)NCc3cccc(C(F)(F)F)c3)ccn2)c1)C(=O)O (stereo not shown) [Example 8.12] | 10 to 31.6
13 | O=C(NCc1cccc(C(F)(F)F)c1)c1ccnc(-c2cc(N3CCCCC3)ccc2NC(=O)c2cccc(CSCCS(=O)(=O)O)c2)c1 [Example 8.13] | 10 to 31.6
14 | O=C(NCc1cccc(C(F)(F)F)c1)c1ccnc(-c2cc(N3CCCCC3)ccc2NC(=O)c2cccc(CSc3ncc(C(=O)O)c(O)n3)c2)c1 [Example 8.14] | 1 to 7.94
15 | O=C(O)c1ccc(SCc2cccc(C(=O)Nc3ccc(N4CCCCC4)cc3-c3cc(C(=O)NCc4cccc(C(F)(F)F)c4)ccn3)c2)nc1 [Example 8.15] | 1 to 7.94
16 | CC(C)(Cc1cccc(SCc2cccc(C(=O)Nc3ccc(N4CCCCC4)cc3-c3cc(C(=O)NCc4cccc(C(F)(F)F)c4)ccn3)c2)c1)C(=O)O [Example 8.20] | 1 to 7.94
17 | O=C(O)CCOCCOCCOCCOCCOCCOCCOCCOCCSCc1cccc(C(=O)Nc2ccc(N3CCCCC3)cc2-c2cc(C(=O)NCc3cccc(C(F)(F)F)c3)ccn2)c1 [Example 8.22] | 1 to 7.94
18 | O=C(NCc1cccc(C(F)(F)F)c1)c1ccnc(-c2cc(N3CCCCC3)ccc2NC(=O)c2cccc(CN3CCC(CO)CC3)c2)c1 [Example 8.27] | 10 to 31.6
19 | O=C(NCc1cccc(C(F)(F)F)c1)c1ccnc(-c2cc(N3CCCCC3)ccc2NC(=O)c2cccc(Cn3ccc4c(C(=O)O)cccc43)c2)c1 [Example 9.1, 1-(3-((4-(Piperidin-1-yl)-2-(4-((3-(trifluoromethyl)benzyl)carbamoyl)pyridin-2-yl)phenyl)carbamoyl)benzyl)-1H-indole-4-carboxylic acid] | 1 to 7.94
20 | CN1CCC(N(C)C(=O)c2cccc(SCc3cccc(C(=O)Nc4ccc(N5CCCCC5)cc4-c4cc(C(=O)NCc5cccc(C(F)(F)F)c5)ccn4)c3)c2)CC1 [Example 10.2] | 10 to 31.6
21 | CN1CCN(C(=O)c2cccc(SCc3cccc(C(=O)Nc4ccc(N5CCCCC5)cc4-c4cc(C(=O)NCc5cccc(C(F)(F)F)c5)ccn4)c3)c2)CC1 [Example 10.3] | 10 to 31.6
22 | CN1CCC(NC(=O)c2cccc(SCc3cccc(C(=O)Nc4ccc(N5CCCCC5)cc4-c4cc(C(=O)NCc5cccc(C(F)(F)F)c5)ccn4)c3)c2)CC1 [Example 10.4] | 10 to 31.6
23 | CN(CCN1CCOCC1)C(=O)c1cccc(SCc2cccc(C(=O)Nc3ccc(N4CCCCC4)cc3-c3cc(C(=O)NCc4cccc(C(F)(F)F)c4)ccn3)c2)c1 [Example 10.7] | 1 to 7.94
24 | CCN(CC)CCN(C)C(=O)c1cccc(SCc2cccc(C(=O)Nc3ccc(N4CCCCC4)cc3-c3cc(C(=O)NCc4cccc(C(F)(F)F)c4)ccn3)c2)c1 [Example 10.8] | 10 to 31.6
25 | CN(CCN1CCOCC1)C(=O)c1cccc(C(=O)Nc2ccc(N3CCCCC3)cc2-c2cc(C(=O)NCc3cccc(C(F)(F)F)c3)ccn2)n1 [Example 11.1, N2-Methyl-N2-(2-morpholinoethyl)-N6-(4-(piperidin-1-yl)-2-(4-((3-(trifluoromethyl)benzyl)carbamoyl)pyridin-2-yl)phenyl)pyridine-2,6-dicarboxamide] | 1 to 7.94
26 | CN(CCN1CCN(C(=O)OC(C)(C)C)CC1)Cc1cccc(C(=O)Nc2ccc(N3CCCCC3)cc2-c2cc(C(=O)NCc3cccc(C(F)(F)F)c3)ccn2)c1 [Example 38, Tert-butyl 4-(2-(methyl(3-((4-(piperidin-1-yl)-2-(4-((3-(trifluoromethyl)benzyl)-carbamoyl)pyridin-2-yl)phenyl)carbamoyl)benzyl)amino)ethyl)piperazine-1-carboxylate] | 10 to 31.6
27 | CN(Cc1cccc(C(=O)Nc2ccc(N3CCCCC3)cc2-c2cc(C(=O)NCc3cccc(C(F)(F)F)c3)ccn2)c1)C(=O)CN1CCOCC1 [Example 42, 2-(2-(3-((N-Methyl-2-morpholinoacetamido)methyl)benzamido)-5-(piperidin-1-yl)phenyl)-N-(3-(trifluoromethyl)benzyl)isonicotinamide] | 10 to 31.6
28 | CN(CCOCCOCCOCCC(=O)O)Cc1cccc(C(=O)Nc2ccc(N3CCCCC3)cc2-c2cc(C(=O)NCc3cccc(C(F)(F)F)c3)ccn2)n1 [Example 54, 2-Methyl-1-(6-((4-(piperidin-1-yl)-2-(4-((3-(trifluoromethyl)benzyl)carbamoyl)pyridin-2-yl)phenyl)carbamoyl)pyridin-2-yl)-5,8,11-trioxa-2-azatetradecan-14-oic acid] | 10 to 31.6
